Measured values from patent publication US11136311B2, “Heteroaromatic derivatives as NIK inhibitors” (Janssen Pharmaceutica NV, priority 2016, dated 2021).
Where two headings read alike, the source gives them in different places.

How the values were obtained:
[1] = biological target: recombinant human NF-kappaB-inducing kinase (NIK/MAP3K14) (Homo sapiens (Human), UniProt Q99558); assay: Inhibition of auto-phosphorylation of recombinant human NIK/MAP3K14 activity (AlphaScreen); type: biochemical; settings: averaged values over all measurements on all batches
Sequence of recombinant human NF-kappaB-inducing kinase (NIK/MAP3K14) (Q99558 whole entry): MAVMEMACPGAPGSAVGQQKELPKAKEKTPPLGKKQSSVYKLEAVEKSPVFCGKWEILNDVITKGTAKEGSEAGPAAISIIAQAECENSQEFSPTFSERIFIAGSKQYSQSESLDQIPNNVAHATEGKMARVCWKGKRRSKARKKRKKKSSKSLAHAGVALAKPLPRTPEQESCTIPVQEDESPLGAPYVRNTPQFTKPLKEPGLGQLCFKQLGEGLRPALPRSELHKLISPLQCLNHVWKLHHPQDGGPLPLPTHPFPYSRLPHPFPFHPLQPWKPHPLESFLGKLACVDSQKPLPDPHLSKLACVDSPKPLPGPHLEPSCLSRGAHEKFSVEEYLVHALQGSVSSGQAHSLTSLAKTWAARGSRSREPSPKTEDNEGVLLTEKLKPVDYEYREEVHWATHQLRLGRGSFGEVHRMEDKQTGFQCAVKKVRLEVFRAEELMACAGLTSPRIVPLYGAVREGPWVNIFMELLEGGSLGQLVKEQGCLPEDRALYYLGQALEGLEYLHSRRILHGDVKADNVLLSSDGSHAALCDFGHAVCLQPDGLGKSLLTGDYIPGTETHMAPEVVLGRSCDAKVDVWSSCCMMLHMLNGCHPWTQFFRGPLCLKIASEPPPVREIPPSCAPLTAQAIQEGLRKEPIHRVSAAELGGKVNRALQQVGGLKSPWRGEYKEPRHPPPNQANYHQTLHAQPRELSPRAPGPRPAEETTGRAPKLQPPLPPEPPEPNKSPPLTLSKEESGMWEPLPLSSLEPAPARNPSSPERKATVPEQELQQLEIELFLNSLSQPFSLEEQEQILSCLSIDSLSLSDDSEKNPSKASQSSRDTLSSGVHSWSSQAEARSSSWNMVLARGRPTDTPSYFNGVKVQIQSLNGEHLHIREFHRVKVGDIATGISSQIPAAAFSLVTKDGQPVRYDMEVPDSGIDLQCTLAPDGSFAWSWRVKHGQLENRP
Outline: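 GST-tagged NIK at 0.2 nM autophosphorylated for 1 h at 25° C with 25 microM ATP in Tris pH 7.5, MgCl2, 1% DMSO. Phospho-IKK Ser176/180 antibody with AlphaScreen beads detected product. IC50 came from sigmoidal fits of blank-corrected % inhibition.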

[2] = test system: P-IKKα levels in L363 cells; assay: Effect of compounds on P-IKKα levels in L363 (NIK translocated multiple myeloma) cells; type: cell-based, human
Outline: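 L363 myeloma cells were primed 24 h with BAFF, then treated 2 h with compound (8-point, 1:3 dilutions, 1% DMSO) at 37°C. P-IKKα in lysates was measured by Mesoscale sandwich immunoassay, with the full-inhibition blank subtracted. IC50 came from a sigmoidal fit of % inhibition of control against log concentration.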

JJN-3 cells = assay: Antiproliferative activity on JJN-3 (NIK translocated) multiple myeloma cells (CellTiter-Glo); type: cell-based, human; settings: read-out: JJN-3 Proliferation inhibition (IC50 (nM))
Outline: (§1)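 Suspension myeloma cells in RPMI 1640 with 10% FCS, plated at 15000 (JJN-3) or 20000 (KMS12-BM) cells/well, were treated 96 hr with 9-point 1:3 compound dilutions at 0.3% DMSO. CellTiter-Glo luminescence, minus a time-zero blank, was expressed as % of untreated control growth.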

KMS12-BM cells = assay: Antiproliferative activity on KMS12-BM (NIK WT) multiple myeloma cells (CellTiter-Glo); type: cell-based, human; settings: read-out: KMS-12 Proliferation inhibition (IC50 (nM))
Outline: as §1

[3] = Homo sapiens, L-363, L363 cells, averaged values, read-out: Inhibition of pIKKα_L-363 (IC50 (nM))
[4] = Homo sapiens, JJN-3, 96 h, JJN-3 (NIK translocated) cells, 96 hr, averaged values
[5] = Homo sapiens, KMS-12-BM, 96 h, KMS12-BM (NIK WT) cells, 96 hr, averaged values
[6] = L363 cells, averaged values, read-out: Inhibition of pIKKα_L-363 (IC50 (nM))
[7] = JJN-3 (NIK translocated) cells, 96 hr, averaged values
[8] = KMS12-BM (NIK WT) cells, 96 hr, averaged values

Row | IC50 [1] | IC50 [2, 3] | IC50 (JJN-3 cells; [4]) | IC50 (KMS12-BM cells; [5]) | IC50 [2, 6] | IC50 (JJN-3 cells; [7]) | IC50 (KMS12-BM cells; [8]) | SMILES | IC50 ([2]; Homo sapiens, L-363, read-out: Inhibition of pIKKα_L-363 (IC50 (nM))) | IC50 (JJN-3 cells; Homo sapiens, JJN-3, 96 h) | IC50 (KMS12-BM cells; Homo sapiens, KMS-12-BM, 96 h)
1 | 2 nM | 2 nM | 309 nM | > 10000 nM |  |  |  | CC(C)Cc1nn(C)cc1Nc1nccc(-c2cc(C#N)c3c(c2)[C@@](C)(CO)CN3)n1 [Compound 97] |  |  | 
2 | 2 nM | 25 nM | 617 nM | > 10000 nM |  |  |  | CC(C)CCc1c(Nc2nccc(-c3cc(C#N)c4c(c3)[C@@](C)(CO)CN4)n2)cnn1CCO [Compound 127] |  |  | 
3 | 1.1 nM | 2 nM | 16 nM | ~6030 nM |  |  |  | CC(C)c1nn(CC(F)F)cc1Nc1nccc(-c2cc(C#N)c3c(c2)[C@@](C)(CO)CN3)n1 [Compound 204] |  |  | 
4 | 1.6 nM | 12 nM | 76 nM | 3800 nM |  |  |  | Cc1cc(Nc2nccc(-c3cc(C#N)c4c(c3)[C@@](C)(CO)CN4)n2)n(CCC2CC2)n1 [Compound 96] |  |  | 
5 | 22 nM | 35 nM | 1410 nM | ~9770 nM |  |  |  | CNC(=O)c1cc(Nc2nccc(-c3cc(C#N)c4c(c3)[C@@](C)(CO)CN4)n2)n(C(C)C)n1 [Compound 183] |  |  | 
6 | 3.7 nM | ~85 nM | 427 nM | > 10000 nM |  |  |  | Cc1cc(Nc2nccc(-c3cc(C#N)c4c(c3)[C@@](C)(CO)CN4)n2)n(CC(=O)N(C)C2CC2)n1 [Compound 89] |  |  | 
7 | 2.1 nM | ~15 nM | 54 nM | > 10000 nM |  |  |  | CC(C)CCc1nn(C)cc1Nc1nccc(-c2cc(C#N)c3c(c2)[C@@](C)(CO)CN3)n1 [Compound 100] |  |  | 
8 | 6.8 nM | 20 nM | 112 nM | > 10000 nM |  |  |  | CNC(=O)c1cc(Nc2nccc(-c3cc(C#N)c4c(c3)[C@@](C)(CO)CN4)n2)n(CCC2CC2)n1 [Compound 198] |  |  | 
9 | 9.3 nM | 126 nM | 59 nM | > 10000 nM |  |  |  | COCCN1CCC(Cn2nc(C)cc2Nc2nccc(-c3cc(C#N)c4c(c3)[C@@](C)(CO)CN4)n2)CC1 [Compound 155] |  |  | 
10 | 3.8 nM | 9 nM | 55 nM | 1350 nM |  |  |  | CC(C)Cn1nc(Cl)cc1Nc1nccc(-c2cc(C#N)c3c(c2)[C@@](C)(CO)CN3)n1 [Compound 107] |  |  | 
11 | 14.8 nM | ~105 nM | 2290 nM | > 10000 nM |  |  |  | COC[C@H](O)Cn1ncc(Nc2nccc(-c3cc(C#N)c4c(c3)[C@@](C)(CO)CN4)n2)c1OC [Compound 221] |  |  | 
12 | 3.5 nM | 7 nM | ~224 nM | 1510 nM |  |  |  | Cc1cc(Nc2nccc(-c3cc(C#N)c4c(c3)[C@@](C)(CO)CN4)n2)n(CCCO)n1 [Compound 92] |  |  | 
13 | 4.2 nM | 68 nM | 398 nM | 5980 nM |  |  |  | COCCn1nc(C)cc1Nc1nccc(-c2cc(C#N)c3c(c2)[C@@](C)(CO)CN3)n1 [Compound 42] |  |  | 
14 | 4.9 nM | 1 nM | 158 nM | > 10000 nM |  |  |  | CNC(=O)c1cc(Nc2nccc(-c3cc(C#N)c4c(c3)[C@@](C)(CO)CN4)n2)nn1C1CCCC1 [Compound 195] |  |  | 
15 | 0.7 nM | 8 nM | 50 nM | ~741 nM |  |  |  | Cc1nc(Nc2nccc(-c3cc(C#N)c4c(c3)[C@@](C)(CO)CN4)n2)sc1C(=O)N(C)C [Compound 149] |  |  | 
16 | 5.9 nM | 166 nM | 224 nM | > 10000 nM |  |  |  | Cc1cc(Nc2nccc(-c3cc(C#N)c4c(c3)[C@@](C)(CO)CN4)n2)n(CC2(F)CCN(C)CC2)n1 [Compound 131] |  |  | 
17 | 2.9 nM | 4 nM | 138 nM | ~8130 nM |  |  |  | CC(C)Oc1nn(CC(F)F)cc1Nc1nccc(-c2cc(C#N)c3c(c2)[C@@](C)(CO)CN3)n1 [Compound 188] |  |  | 
18 | 5.6 nM | 7 nM | 178 nM | 4170 nM |  |  |  | Cc1cc(Nc2nccc(-c3cc(C#N)c4c(c3)[C@@](C)(CO)CN4)n2)n(CC2CCCOC2)n1 (mixture of isomers) [Compound 94] |  |  | 
19 | 2.6 nM | 4 nM | 71 nM | 3020 nM |  |  |  | CNC(=O)c1cc(Nc2nccc(-c3cc(C#N)c4c(c3)[C@@](C)(CO)CN4)n2)nn1C(C)C [Compound 103] |  |  | 

Row | IC50 [1] | IC50 [2, 3] | IC50 (JJN-3 cells; [4]) | IC50 (KMS12-BM cells; [5]) | IC50 [2, 6] | IC50 (JJN-3 cells; [7]) | IC50 (KMS12-BM cells; [8]) | SMILES | IC50 ([2]; Homo sapiens, L-363, read-out: Inhibition of pIKKα_L-363 (IC50 (nM))) | IC50 (JJN-3 cells; Homo sapiens, JJN-3, 96 h) | IC50 (KMS12-BM cells; Homo sapiens, KMS-12-BM, 96 h)
20 | 3.9 nM | 16 nM | 389 nM | ~7080 nM |  |  |  | CC(C)CCc1c(Nc2nccc(-c3cc(C#N)c4c(c3)[C@@](C)(CO)CN4)n2)cnn1CC1CCN(CC(F)F)CC1 [Compound 169] |  |  | 
21 | 17 nM | 135 nM | 646 nM | 7940 nM |  |  |  | C[C@]1(CO)CNc2c(C#N)cc(-c3ccnc(Nc4cc(Cl)nn4CC4CCN(CC(F)(F)F)CC4)n3)cc21 [Compound 152] |  |  | 
22 | ~29 nM | 3 nM | 126 nM | 5010 nM |  |  |  | CC(C)CCc1c(Nc2nccc(-c3cc(C#N)c4c(c3)[C@@](C)(CO)CN4)n2)cnn1Cc1cncn1C [Compound 120] |  |  | 
23 | 42 nM |  |  |  | 813 nM | 79 nM | > 10000 nM | Cc1cc(Nc2nccc(-c3cc(C#N)c4c(c3)[C@@](C)(CO)CN4)n2)n(CC2CCCN(C)C2)n1 (single isomer, unassigned) [Compound 141] |  |  | 
24 | 1.2 nM | 2 nM | 141 nM | 741 nM |  |  |  | Cc1c(Nc2nccc(-c3cc(C#N)c4c(c3)[C@@](C)(CO)CN4)n2)cnn1CC1CCOCC1 [Compound 76] |  |  | 
25 | 8.5 nM | 48 nM | 1620 nM | > 10000 nM |  |  |  | Cc1cc(Nc2nccc(-c3cc(C#N)c4c(c3)[C@@](C)(CO)CN4)n2)n(CCN2CCOCC2)n1 [Compound 165] |  |  | 
26 | 4.1 nM | 14 nM | ~724 nM | ~3160 nM |  |  |  | Cc1cc(Nc2nccc(-c3cc(C#N)c4c(c3)[C@@](C)(CO)CN4)n2)n(CCC(C)(C)O)n1 [Compound 108] |  |  | 
27 | 2 nM | 5 nM | 1020 nM | > 10000 nM |  |  |  | CC(C)Cc1c(Nc2nccc(-c3cc(C#N)c4c(c3)[C@@](C)(CO)CN4)n2)cnn1C [Compound 98] |  |  | 
28 | 6 nM | 234 nM | 1510 nM | 5250 nM |  |  |  | CC(C)CCc1nn(CCN(C)C)cc1Nc1nccc(-c2cc(C#N)c3c(c2)[C@@](C)(CO)CN3)n1 [Compound 101] |  |  | 
29 | 3.6 nM | 11 nM | 50 nM | 468 nM |  |  |  | Cc1cc(Nc2nccc(-c3cc(C#N)c4c(c3)[C@@](C)(CO)CN4)n2)nn1CCC(C)(C)O [Compound 109] |  |  | 
30 | 2.6 nM | < 0.66 nM | 132 nM | 4680 nM |  |  |  | CC(C)n1nc(Nc2nccc(-c3cc(C#N)c4c(c3)[C@@](C)(CO)CN4)n2)cc1C(=O)NC1CC1 [Compound 164] |  |  | 
31 | 9.8 nM |  |  |  | 31 nM | 380 nM | ~4900 nM | Cc1cc(Nc2nccc(-c3cc(C#N)c4c(c3)[C@@](C)(CO)CN4)n2)n(CC2COCCO2)n1 (single isomer, unassigned) [Compound 85] |  |  | 
32 | 5.5 nM | 13 nM | 324 nM | > 10000 nM |  |  |  | CC(C)n1nc(C2CCOCC2)cc1Nc1cc(-c2cc(C#N)c3c(c2)[C@@](C)(CO)CN3)ncn1 [Compound 91] |  |  | 
33 | 3.8 nM | 28 nM | 251 nM | 2040 nM |  |  |  | C[C@]1(CO)CNc2c(C#N)cc(-c3ccnc(Nc4cc(Cl)nn4C[C@@H]4CCOC4)n3)cc21 [Compound 129] |  |  | 
34 | 3.3 nM | 11 nM | 87 nM | ~9120 nM |  |  |  | COCCc1c(Nc2nccc(-c3cc(C#N)c4c(c3)[C@@](C)(CO)CN4)n2)cnn1CC(F)F [Compound 181] |  |  | 
35 | ~5 nM |  |  |  | 13 nM | 182 nM | 380 nM | Cc1cc(Nc2nccc(-c3cc(C#N)c4c(c3)[C@@](C)(CO)CN4)n2)n(CC2CCOC2)n1 (single isomer, unassigned) [Compound 82] |  |  | 
36 | 2.9 nM | 13 nM | 69 nM | 8910 nM |  |  |  | COCCCn1nc(Cl)cc1Nc1nccc(-c2cc(C#N)c3c(c2)[C@@](C)(CO)CN3)n1 [Compound 112] |  |  | 
37 | 2.1 nM | 4 nM | 204 nM | ~2240 nM |  |  |  | CNC(=O)c1cc(Nc2nccc(-c3cc(C#N)c4c(c3)[C@@](C)(CO)CN4)n2)nn1CC(F)F [Compound 197] |  |  | 

Row | SMILES | IC50 [1] | IC50 [2, 3] | IC50 (JJN-3 cells; [4]) | IC50 (KMS12-BM cells; [5]) | IC50 [2, 6] | IC50 (JJN-3 cells; [7]) | IC50 (KMS12-BM cells; [8]) | IC50 ([2]; Homo sapiens, L-363, read-out: Inhibition of pIKKα_L-363 (IC50 (nM))) | IC50 (JJN-3 cells; Homo sapiens, JJN-3, 96 h) | IC50 (KMS12-BM cells; Homo sapiens, KMS-12-BM, 96 h)
38 | C[C@]1(CO)CNc2c(C#N)cc(-c3ccnc(Nc4cnn(CCN5CC6COCC6C5)c4N4CCOCC4)n3)cc21 (some centres unmarked) [Compound 200] | 5.9 nM |  |  |  |  |  |  | 20 nM | 3550 nM | > 10000 nM
